Values after ≈ are worked out from the molar mass of the structure shown. Values joined by “and” are separate entries in the source; they are usually repeats but may differ in a detail not shown here. Identical values can stand only once. Active and inactive are the calls of the source. No cut-off for these calls is given here.
Legend:
[1] = Inhibitory concentration required to inhibit ADP-induced platelet aggregation in human platelet rich plasma; format: functional, cell-free
[2] = Concentration required to inhibit in vitro ADP-induced platelet aggregation in human platelet rich plasma relative PGE1; format: functional
Homo sapiens [3] = species on record: Homo sapiens; assay: Activity against PRP following incubation for 30 min in human whole blood; Active; format: functional, tissue-based
[4] = Inhibitory activity against ADP-induced platelet aggregation at concentration 10 ug/mL; format: functional, Homo sapiens; details: for inhibition at 10 µg/mL: Homo sapiens
[5] = Inhibitory activity against ADP-induced platelet aggregation at concentration 3.2 ug/mL; format: functional, Homo sapiens
Rattus norvegicus [6] = assay: ADP-induced platelet aggregation activity was tested for oral activity in rats at dose 100 mg/kg; format: functional
[7] = Inhibitory activity against ADP-induced platelet aggregation at concentration 1 ug/mL; format: functional, Homo sapiens
[8] = Inhibitory activity against ADP-induced platelet aggregation at concentration 10 ng/mL; format: functional, Homo sapiens
[9] = Inhibitory activity against ADP-induced platelet aggregation at concentration 32 ng/mL; format: functional, Homo sapiens
Cavia porcellus [10] = assay: ADP-induced platelet aggregation activity was tested for oral activity in guinea pigs at dose 100 mg/kg; format: functional
Rattus norvegicus [11] = assay: ADP-induced platelet aggregation activity was tested for oral activity in rats at dose 30 mg/kg; format: functional
Cavia porcellus [12] = assay: ADP-induced platelet aggregation activity was tested for oral activity in guinea pigs at dose 50 mg/kg; format: functional
Rattus norvegicus [13] = assay: ADP-induced platelet aggregation activity was tested for oral activity in rats at dose 25 mg/kg; format: functional
Rattus norvegicus [14] = assay: ADP-induced platelet aggregation activity was tested for oral activity in rats at dose 50 mg/kg; format: functional
Homo sapiens [15] = species on record: Homo sapiens; assay: Activity against PRP following incubation for 30 min in human whole blood; Inactive; format: functional, tissue-based
[16] = Inhibitory activity against ADP-induced platelet aggregation at concentration 1.0 ug/mL; format: functional; details: Homo sapiens
Cavia porcellus [17] = assay: ADP-induced platelet aggregation activity was tested for oral activity in guinea pigs at dose 50 mg/kg
Cavia porcellus [18] = assay: ADP-induced platelet aggregation activity was tested for oral activity in guinea pigs at dose 30 mg/kg; format: functional

Row | Structure (SMILES) | IC50 [1] | Relative potency [2] | Aggregation (Rattus norvegicus [6]) | also measured
1 | O=C(NCCCCCCNC(=O)N(C(=NC1CCCCC1)N1CCOCC1)C1CCCCC1)N(C(=NC1CCCCC1)N1CCOCC1)C1CCCCC1 | 3.2 µg/mL (≈ 4.24 µM) | 0.003 | 80.8% | Activity (Homo sapiens [3]): Active; Inhibition [4]: 85%; inhibition at 10 µg/mL [4]: 82%; Inhibition [5]: 38% and 62%; Inhibition [7]: 27%; inhibition at 1 µg/mL ([7]; Homo sapiens): 29%
2 | CCCCC[C@H](O)/C=C/[C@H]1[C@H](O)CC(=O)[C@@H]1CCCCCCC(=O)O [ALPROSTADIL] | 0.01 µg/mL (≈ 0.0282 µM) | 1 | – | Inhibition [8]: 56% and 28% and 37%; Inhibition [9]: 94% and 90% and 72%
3 | Cl.Cl.O=C(NCCCCCCNC(=O)N(/C(=N/C1CCCCC1)N1CCOCC1)C1CCCCC1)N(/C(=N\C1CCCCC1)N1CCOCC1)C1CCCCC1 | 10 µg/mL | 0.001 | 84.5% | –
4 | O=C(NCCCCNC(=O)N(C(=NC1CCCCC1)N1CCOCC1)C1CCCCC1)N(C(=NC1CCCCC1)N1CCOCC1)C1CCCCC1 | 10 µg/mL (≈ 13.8 µM) | 0.001 | 73.5% | –
5 | CN(CCCCCCN(C)C(=O)N(C(=NC1CCCCC1)N1CCOCC1)C1CCCCC1)C(=O)N(C(=NC1CCCCC1)N1CCOCC1)C1CCCCC1 | 3.2 µg/mL (≈ 4.09 µM) | 0.003 | 52% | Aggregation (Cavia porcellus [10]): 41%; Aggregation (Rattus norvegicus [11]): 81.2%
6 | O=C(NCCCCCCNC(=O)N(C(=NC1CCCCC1)N1CCCCC1)C1CCCCC1)N(C(=NC1CCCCC1)N1CCCCC1)C1CCCCC1 | 10 µg/mL (≈ 13.3 µM) | 0.001 | 46.2% | Aggregation (Cavia porcellus [10]): 48.7%; Aggregation (Cavia porcellus [12]): 47.7%; Aggregation (Rattus norvegicus [13]): 83.2%; Aggregation (Rattus norvegicus [14]): 86%
7 | O=C(NCCCCCNC(=O)N(C(=NC1CCCCC1)N1CCOCC1)C1CCCCC1)N(C(=NC1CCCCC1)N1CCOCC1)C1CCCCC1 | 10 µg/mL (≈ 13.5 µM) | 0.001 | 41% | –
8 | O=C(NCCCCCCCNC(=O)N(C(=NC1CCCCC1)N1CCOCC1)C1CCCCC1)N(C(=NC1CCCCC1)N1CCOCC1)C1CCCCC1 | 10 µg/mL (≈ 13 µM) | 0.001 | 70.5% | –
9 | O=C(NCc1cc(CNC(=O)N(C(=NC2CCCCC2)N2CCOCC2)C2CCCCC2)cc(CNC(=O)N(C(=NC2CCCCC2)N2CCOCC2)C2CCCCC2)c1)N(C(=NC1CCCCC1)N1CCOCC1)C1CCCCC1 | 10 µg/mL (≈ 8.9 µM) | 0.001 | – | Activity (Homo sapiens [15]): inactive
10 | O=C(NCc1cccc(CNC(=O)N(C(=NC2CCCCC2)N2CCOCC2)C2CCCCC2)c1)N(C(=NC1CCCCC1)N1CCOCC1)C1CCCCC1 | 3.2 µg/mL (≈ 4.13 µM) | 0.003 | – | Activity (Homo sapiens [3]): Active; inhibition at 1 µg/mL [16]: 27%; inhibition at 10 µg/mL [4]: 68%; inhibition at 3.2 µg/mL ([5]; Homo sapiens): 40%; Aggregation (Cavia porcellus [17]): 19.3%
11 | CN(CCN(C)C(=O)N(C(=NC1CCCCC1)N1CCOCC1)C1CCCCC1)C(=O)N(C(=NC1CCCCC1)N1CCOCC1)C1CCCCC1 | 3.2 µg/mL (≈ 4.4 µM) | 0.003 | 100% | Aggregation (Cavia porcellus [10]): 0%; Aggregation (Cavia porcellus [18]): 62.7%
12 | O=C(NCCCCCCCCNC(=O)N(C(=NC1CCCCC1)N1CCOCC1)C1CCCCC1)N(C(=NC1CCCCC1)N1CCOCC1)C1CCCCC1 | 10 µg/mL (≈ 12.8 µM) | 0.001 | – | –
13 | O=C(N1CCN(C(=O)N(/C(=N/C2CCCCC2)N2CCOCC2)C2CCCCC2)CC1)N(/C(=N/C1CCCCC1)N1CCOCC1)C1CCCCC1 | 10 µg/mL (≈ 13.8 µM) | 0.001 | 44.8% | –
14 | CN(Cc1cccc(CN(C)C(=O)N(C(=NC2CCCCC2)N2CCOCC2)C2CCCCC2)c1)C(=O)N(C(=NC1CCCCC1)N1CCOCC1)C1CCCCC1 | 3.2 µg/mL (≈ 3.98 µM) | 0.003 | 38.5% | –
15 | O=C(NCCCCCCCCCNC(=O)N(C(=NC1CCCCC1)N1CCOCC1)C1CCCCC1)N(C(=NC1CCCCC1)N1CCOCC1)C1CCCCC1 | 10 µg/mL (≈ 12.5 µM) | 0.001 | – | –

Source: ChEMBL document CHEMBL1124608, “Synthesis of acylguanidine analogues: inhibitors of ADP-induced platelet aggregation” (J Med Chem, 1989)
